This is an account of results in patent US20260374739A1, “SMALL MOLECULAR WEIGHT CHEMICAL COMPOUND TO ANTAGONIZE EPH-EPHRIN TETRAMERIZATION AND INHIBIT BIDIRECTIONAL SIGNALING” (THE BOARD OF REGENTS OF THE UNIVERSITY OF TEXAS SYSTEM, priority 2022, published 2026).

Several values for one entry are separate records, joined by “and”; a condition that tells them apart may be missing. Equal entries are not always repeated. Where two headings read alike, the source gives them in different places.

For this experiment, the target named is T1, EphA3-EphrinA1 (Homo sapiens, UniProt P29320).
T1 sequence (P29320 21-541 limits assumed): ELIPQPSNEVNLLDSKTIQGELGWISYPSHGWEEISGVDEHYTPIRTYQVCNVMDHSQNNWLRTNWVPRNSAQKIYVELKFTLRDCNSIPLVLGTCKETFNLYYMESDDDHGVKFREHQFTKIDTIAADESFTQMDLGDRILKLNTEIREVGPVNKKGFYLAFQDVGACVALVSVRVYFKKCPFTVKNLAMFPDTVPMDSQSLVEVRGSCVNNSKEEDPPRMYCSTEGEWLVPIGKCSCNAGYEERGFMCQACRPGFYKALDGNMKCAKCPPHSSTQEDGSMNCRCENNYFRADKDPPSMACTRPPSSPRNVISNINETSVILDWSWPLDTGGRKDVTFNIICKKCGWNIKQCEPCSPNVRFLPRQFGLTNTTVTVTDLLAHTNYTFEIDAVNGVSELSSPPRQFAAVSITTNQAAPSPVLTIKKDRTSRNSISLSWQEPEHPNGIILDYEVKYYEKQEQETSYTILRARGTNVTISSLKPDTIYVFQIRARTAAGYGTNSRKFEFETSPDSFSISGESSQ
Description: Octet, immobilized human EphA3 binding to human EphrinA1. The conditions noted are these: for IC50: immobilized human EphA3, 50 nM soluble human EphrinA1. As to the method:
The Octet system was used to probe the interactions of epitope-tagged human A class proteins, focusing on immobilized EphA3 binding to two of its cognate ligands, EphrinA1 and EphrinA5, as well as EphB2 binding to EphrinA5 (FIG. 27). […] Focusing on the dimerization-driven EphA3-EA5 interaction first (green sensorgram trace), which mimics what is disclosed above for EphB4-EB2, the initial binding of soluble EphrinA5 to the immobilized EphA3 is very fast and strong with a long and steep 84° slope of response that then quickly bends around 35 sec into the association step to form a more gradual tetramerization accumulation slope. […] However, again like the EphB4-EB2 interaction, once placed into dissociation, a significant fraction of the bound EA5 protein melts quickly and the off phase continues downward with a slow gradual decline in bound protein. Although the dissociation was for only 500 sec, the continued downward slope of the response indicates most of the bound EA5 protein would eventually melt off of the immobilized EphA3 protein. This is referred to as a classic dimerization-driven interaction, fast and strong initial binding in the association step but with most of the bound protein coming off in the dissociation due to lack of formation of stable tetramers. EphA3 interacts with EphrinA1 with totally different kinetics/dynamics (orange sensorgram trace). Here, the initial high 84° dimerization slope phase is extremely brief (5 sec) with the binding quickly snapping into a linear tetramerization accumulation phase with a 25° slope, and that once placed into dissociation step almost no bound protein melts, just the small amount that would represent dimer interactions falling off in the first few seconds after being placed into dissociation. […] EphB2 interacting with EA5 is similar to the EphA3-EA1 interaction, in that the association step is characterized by a very brief (5 sec) high 84° slope phase that quickly bends into a more gradual tetramer accumulation phase (blue sensorgram trace). […] The strong initial off phase of the EphB2-EA5 complexes in the dissociation represents both the melting of weak dimers and of the relatively weaker affinity tetramers formed by the cross A/B class EphB2-EA5 molecules.
While there is no effect of A20 on the initial 5 sec fast EphA3-EA1 dimer phase, there is a very strong effect of compound on tetramer accumulation. It was estimated that >70% of the EphA3-EA1 binding interaction can be attributed to the tetramer which is effectively disrupted by compound, with very little binding activity attributed to the dimer and more accurately the dimerization:tetramerization ratio of this interaction is 10:90 not 30:70. […] Since this is a dimerization-driven type interaction (dimerization:tetramerization ratio of here is 72:28), the overall effect of compound on this interaction is muted.
In general terms: In BLI a coated tip is dipped into the sample, and binding shifts an interference pattern.

Setting [1] is: Human EphA3-EphrinA1, association, absolute, read-out: Absolute Association IC50.
Where [2] appears, read: Human EphA3-EphrinA1, association, relative, read-out: Relative Association IC50.
Where [3] appears, read: Human EphA3-EphrinA1, dissociation, absolute, read-out: Absolute Dissociation IC50.
Where [4] appears, read: Human EphA3-EphrinA1, dissociation, relative, read-out: Relative Dissociation IC50.
Setting [5] is: Absolute Association IC50, Human EphA3-EphrinA1, association, absolute.
The mark [6] stands for this setting: Relative Association IC50, Human EphA3-EphrinA1, association, relative.
Where [7] appears, read: Relative Dissociation IC50, Human EphA3-EphrinA1, dissociation, relative.

As to `Oc1ccc(CN2CCOCC2)c2cccnc12` [Compound 1, 5-(morpholinomethyl)quinolin-8-ol], the IC50 (commonly the concentration that gives 50% inhibition) under setting [1] is 8.24 µM, the IC50 under setting [2] turned out to be 6.29 µM, the IC50 under setting [3] is 6.73 µM and the IC50 under setting [4] worked out at 2.39 µM.
In the case of `Oc1c(Cl)cc(CN2CCOCC2)c2cccnc12` [Compound 4, 4-((7-chloro-8-hydroxyquinolin-1-ium-5-yl)methyl)morpholin-4-ium chloride], the half-maximal inhibitory concentration (IC50) under setting [5] was 1.84 µM, the IC50 under setting [3] was found to be 0.9 µM, the IC50 under setting [4] came out at 0.9 µM and the IC50 under setting [6] was determined as 0.89 µM.
`Oc1c(Br)cc(CN2CCOCC2)c2cccnc12` [Compound 5, 7-bromo-5-(morpholinomethyl)quinolin-8-ol]: the inhibition at 1 µM (1 μM, read-out: tetramers lost) was roughly 50%. Moreover, the “loss of tetramer formation” value (100 μM) is “near complete loss of tetramer formation”.
As to `Oc1c(Br)cc(CN2CCOCC2)c2cccnc12` [Compound 6, 4-((7-bromo-8-hydroxyquinolin-1-ium-5-yl)methyl)morpholin-4-ium chloride], the concentration for half-maximal inhibition (IC50) turned out to be 1.99 µM under setting [3] and 7.24 µM under setting [6].
For the compound `Oc1c(I)cc(CN2CCOCC2)c2cccnc12` [Compound 8, 4-((8-hydroxy-7-iodoquinolin-1-ium-5-yl)methyl)morpholin-4-ium chloride], the IC50 under setting [1] was 0.45 µM and 1.45 µM; the IC50 under setting [2] is 0.19 µM and 0.71 µM; the IC50 under setting [3] is 1.2 µM and 1.52 µM; the IC50 under setting [4] is 0.46 µM and 1.14 µM.
On to `O=[N+]([O-])c1cc(CN2CCOCC2)c2cccnc2c1O` [Compound 10, 4-((8-hydroxy-7-nitroquinolin-1-ium-5-yl)methyl)morpholin-4-ium chloride], for which the IC50 reads like this: under setting [5], 14 µM; (Absolute Dissociation IC50, Human EphA3-EphrinA1, dissociation, absolute) 6.3 µM; under setting [2], 8.3 µM; under setting [4], 4.23 µM.
Consider `O=S1(=O)CCN(Cc2ccc(O)c3ncccc23)CC1` [Compound 15, 4-((8-hydroxyquinolin-1-ium-5-yl)methyl)thiomorpholin-4-ium 1,1-dioxide chloride], for which the IC50 was 100 µM under setting [1], 29.3 µM under setting [3], 12.3 µM under setting [6] and 6 µM under setting [7].
Regarding `Oc1ccc(CN2CCN(Cc3ccc(C(F)(F)F)cc3)CC2)c2cccnc12` [Compound 48, 5-((4-(4-(trifluoromethyl)benzyl)piperazin-1-yl)methyl)quinolin-8-ol], the IC50 under setting [1] came out at 100 µM, the IC50 under setting [2] is 100 µM, the 50% inhibitory concentration (IC50) under setting [3] came out at 9.4 µM and the IC50 under setting [7] was found to be 5.3 µM.
